Values after ≈ are worked out from the molar mass of the structure shown.
How the values were obtained:
Test in all cases: ≥ marks a high value that may be exact or a test limit, other limits are often not marked, values filed in µg/mL are converted to µM
[1] = system: Staphylococcus aureus NCTC 8325
[2] = system: Escherichia coli ATCC 25922
[3] = system: Candida albicans ATCC 90028
[4] = system: Escherichia coli ATCC 25726
[5] = system: Staphylococcus aureus ATCC 25923
[6] = system: Staphylococcus aureus KCTC 1621
[7] = system: Pseudomonas aeruginosa KCTC 1637
[8] = system: Bacillus subtilis KCTC 3068
[9] = system: Staphylococcus epidermidis KCTC 1917
[10] = system: Salmonella typhimurium KCTC 1926
[11] = system: Escherichia coli KCTC 1682
[12] = system: Pseudomonas aeruginosa ATCC 27853
[13] = system: Escherichia coli ATCC 11775

Row | SMILES | MIC [1] | MIC [2] | MIC [3] | MIC [6] | MIC [7] | MIC [8] | MIC [9] | MIC [10] | MIC [11] | also measured
1 | CC[C@H](C)[C@H](NC(=O)CNC(=O)[C@H](CO)NC(=O)[C@H](CC(C)C)NC(=O)[C@H](CC(C)C)NC(=O)[C@H](CCCCN)NC(=O)CNC(=O)[C@H](CC(C)C)NC(=O)[C@@H](NC(=O)[C@@H]1CCCN1C(=O)[C@H](CC(C)C)NC(=O)[C@@H](N)Cc1ccccc1)[C@@H](C)CC)C(=O)N[C@@H](CC(C)C)C(N)=O [FLPILGKLLSGIL] | 15 µM (≈ 20.7 µg/mL) | > 100 µM |  |  |  |  |  |  |  | 
2 | CC[C@H](C)[C@H](NC(=O)[C@H](CC(C)C)NC(=O)[C@H](CCCCN)NC(=O)[C@H](CCCCN)NC(=O)[C@@H](NC(=O)[C@H](C)NC(=O)[C@H](CCCCN)NC(=O)[C@@H](NC(=O)[C@H](C)NC(=O)[C@H](Cc1cnc[nH]1)NC(=O)[C@@H]1CCCN1C(=O)[C@@H](NC(=O)[C@H](CC(C)C)NC(=O)[C@@H]1CCCN1C(=O)[C@H](CCCCN)NC(=O)[C@@H](NC(=O)[C@H](Cc1ccc(O)cc1)NC(=O)[C@H](CCCCN)NC(=O)[C@H](CCSC)NC(=O)[C@H](Cc1ccccc1)NC(=O)CN)[C@@H](C)CC)[C@@H](C)CC)C(C)C)[C@@H](C)CC)C(=O)O [GFMKYIKPLIPHAVKAIKKLI] | ≥ 50 µM | 6.25 µM (≈ 15.1 µg/mL) | ≥ 200 µM |  |  |  |  |  |  | 
3 | CC[C@H](C)[C@H](NC(=O)CN)C(=O)N[C@@H](CC(C)C)C(=O)N[C@@H](CC(=O)O)C(=O)N[C@@H](CO)C(=O)N[C@@H](Cc1ccccc1)C(=O)N[C@@H](CCCCN)C(=O)NCC(=O)N[C@H](C(=O)N[C@@H](C)C(=O)N[C@@H](CCCCN)C(=O)NCC(=O)N[C@H](C(=O)N[C@@H](C)C(=O)N[C@@H](CCCCN)C(=O)N[C@@H](CC(=O)O)C(=O)N[C@@H](CC(C)C)C(=O)N[C@@H](C)C(=O)NCC(=O)N[C@@H](CCCCN)C(=O)N[C@@H](CC(C)C)C(=O)N[C@@H](CC(C)C)C(=O)N[C@@H](CC(=O)O)C(=O)N[C@@H](CCCCN)C(=O)N[C@@H](CC(C)C)C(=O)N[C@@H](CCCCN)C(=O)N[C@H]1CSSC[C@@H](C(=O)O)NC(=O)CNC(=O)[C@H]([C@@H](C)O)NC(=O)[C@H]([C@@H](C)CC)NC(=O)[C@H](CCCCN)NC1=O)C(C)C)C(C)C [GILDSFKGVAKGVAKDLAGKLLDKLKCKITGC] | 11 µM (≈ 36.2 µg/mL) | 4 µM (≈ 13.2 µg/mL) | ≥ 150 µM |  |  |  |  |  |  | MIC [4]: 25 µM (≈ 82.2 µg/mL); MIC [5]: 50 µM (≈ 164 µg/mL)
4 | CC[C@H](C)[C@H](NC(=O)CNC(=O)CNC(=O)[C@@H](NC(=O)[C@H](Cc1ccccc1)NC(=O)[C@H](CC(C)C)NC(=O)[C@H](CO)NC(=O)[C@H](CC(C)C)NC(=O)[C@@H](NC(=O)CN)[C@@H](C)CC)[C@@H](C)O)C(=O)N[C@@H](CCCCN)C(=O)N[C@@H](C)C(=O)N[C@@H](CC(C)C)C(=O)NCC(=O)N[C@@H](CCCCN)C(=O)N[C@H](C(=O)N[C@@H](CC(C)C)C(=O)N[C@@H](Cc1ccccc1)C(=O)N[C@@H](CCCCN)C(=O)N[C@@H](CCSC)C(=O)N[C@@H](C)C(=O)NCC(=O)N[C@@H](CCCCN)C(=O)N[C@@H](C)C(=O)NCC(=O)N[C@@H](C)C(=O)N[C@@H](CCC(=O)O)C(=O)N[C@@H](Cc1cnc[nH]1)C(=O)N[C@@H](CC(C)C)C(=O)N[C@@H](C)C(=O)N[C@H]1CSSC[C@@H](C(=O)O)NC(=O)[C@H](CCC(N)=O)NC(=O)[C@H](CC(N)=O)NC(=O)[C@H]([C@@H](C)O)NC(=O)[C@H](C)NC(=O)[C@H](CCCCN)NC1=O)[C@@H](C)O [GILSLFTGGIKALGKTLFKMAGKAGAEHLACKATNQC] | 3 µM (≈ 11.2 µg/mL) | 6 µM (≈ 22.5 µg/mL) | ≥ 53 µM |  |  |  |  |  |  | 
5 | CC[C@H](C)[C@@H]1NC(=O)[C@H](CCCCN)NC(=O)[C@@H](NC(=O)[C@H](CCCCN)NC(=O)[C@H](CC(C)C)NC(=O)[C@H](CCCCN)NC(=O)[C@H](CC(=O)O)NC(=O)[C@H](CC(C)C)NC(=O)[C@H](CCSC)NC(=O)[C@H](CO)NC(=O)[C@H](C)NC(=O)[C@H](C)NC(=O)[C@@H](NC(=O)[C@@H](NC(=O)[C@H](CCCCN)NC(=O)[C@H](C)NC(=O)[C@@H](NC(=O)CNC(=O)[C@H](CCCCN)NC(=O)[C@@H](NC(=O)[C@@H](NC(=O)[C@H](CC(=O)O)NC(=O)[C@H](CC(C)C)NC(=O)[C@H](CC(C)C)NC(=O)CN)[C@@H](C)O)[C@@H](C)CC)C(C)C)[C@@H](C)O)C(C)C)CSSC[C@@H](C(=O)O)NC(=O)CNC(=O)[C@H](CO)NC1=O [GLLDTIKGVAKTVAASMLDKLKCKISGC] | 2 µM (≈ 5.73 µg/mL) | 2 µM (≈ 5.73 µg/mL) | ≥ 35 µM |  |  |  |  |  |  | 
6 | CC[C@H](C)[C@H](N)C(=O)N[C@@H](CC(C)C)C(=O)N[C@@H](CCCCN)C(=O)N[C@@H](Cc1c[nH]c2ccccc12)C(=O)N[C@@H](CCCCN)C(=O)N[C@@H](Cc1c[nH]c2ccccc12)C(=O)N1CCC[C@H]1C(=O)N[C@@H](Cc1c[nH]c2ccccc12)C(=O)N[C@@H](Cc1c[nH]c2ccccc12)C(=O)N[C@@H](CCCCN)C(=O)N[C@@H](Cc1c[nH]c2ccccc12)C(=O)N[C@@H](CCCN=C(N)N)C(=O)N[C@@H](CCCN=C(N)N)C(N)=O [ILKWKWPWWKWRR] |  |  |  | 2.54 µM (≈ 5 µg/mL) | 5.08 µM (≈ 10 µg/mL) | 2.54 µM (≈ 5 µg/mL) | 5.08 µM (≈ 10 µg/mL) | 5.08 µM (≈ 10 µg/mL) | 5.08 µM (≈ 10 µg/mL) | 

Now from value to compound, other results behind:

Row | MIC [1] | MIC [2] | MIC [3] | MIC [6] | MIC [7] | MIC [8] | MIC [9] | MIC [10] | MIC [11] | SMILES | also measured
7 |  |  |  | 2 µM (≈ 4.6 µg/mL) | 1 µM (≈ 2.3 µg/mL) | 2 µM (≈ 4.6 µg/mL) | 1 µM (≈ 2.3 µg/mL) | 1 µM (≈ 2.3 µg/mL) | 2 µM (≈ 4.6 µg/mL) | CC[C@H](C)[C@H](NC(=O)[C@H](CCCCN)NC(=O)[C@H](CCCCN)NC(=O)[C@H](Cc1ccccc1)NC(=O)[C@H](CC(C)C)NC(=O)[C@H](CCCCN)NC(=O)[C@H](C)NC(=O)[C@@H](N)CCCCN)C(=O)N1CCC[C@H]1C(=O)N[C@@H](CCCCN)C(=O)N[C@@H](Cc1ccccc1)C(=O)N[C@@H](CC(C)C)C(=O)N[C@@H](Cc1cnc[nH]1)C(=O)N[C@@H](CC(C)C)C(=O)N[C@@H](Cc1c[nH]c2ccccc12)C(=O)N[C@@H](CCCCN)C(=O)N[C@@H](CCCCN)C(=O)N[C@@H](Cc1ccccc1)C(N)=O [KAKLFKKIPKFLHLWKKF] | 
8 |  | 47 µM (≈ 42.4 µg/mL) |  |  |  |  |  |  |  | NCCCC[C@H](NC(=O)[C@H](Cc1c[nH]c2ccccc12)NC(=O)[C@H](CCC(N)=O)NC(=O)[C@H](Cc1c[nH]c2ccccc12)NC(=O)[C@H](CCCCN)NC(=O)[C@@H](N)CCCCN)C(=O)O [KKWQWK] | MIC [12]: 47 µM (≈ 42.4 µg/mL); MIC [5]: 47 µM (≈ 42.4 µg/mL); MIC [13]: 23 µM (≈ 20.8 µg/mL)
9 |  |  |  | 4 µM (≈ 6.2 µg/mL) | 16 µM (≈ 24.8 µg/mL) | 8 µM (≈ 12.4 µg/mL) | 2 µM (≈ 3.1 µg/mL) | 4 µM (≈ 6.2 µg/mL) | 16 µM (≈ 24.8 µg/mL) | CC[C@H](C)[C@H](NC(=O)[C@H](CC(C)C)NC(=O)[C@H](CCCCN)NC(=O)[C@@H](NC(=O)[C@@H](NC(=O)[C@H](CCCN=C(N)N)NC(=O)[C@@H](N)CC(C)C)[C@@H](C)CC)C(C)C)C(=O)N[C@@H](CC(C)C)C(=O)N[C@@H](CCCCN)C(=O)N[C@@H](Cc1c[nH]c2ccccc12)C(=O)N[C@@H](CC(C)C)C(=O)N[C@@H](CCCN=C(N)N)C(N)=O [LRIVKLILKWLR] | 
10 |  |  |  | 7.44 µM (≈ 12.5 µg/mL) | 3.72 µM (≈ 6.25 µg/mL) | 7.44 µM (≈ 12.5 µg/mL) | 3.72 µM (≈ 6.25 µg/mL) | 1.86 µM (≈ 3.13 µg/mL) | 14.9 µM (≈ 25 µg/mL) | CC[C@H](C)[C@H](NC(=O)[C@H](CCCN=C(N)N)NC(=O)[C@H](CC(C)C)NC(=O)[C@H](CC(C)C)NC(=O)[C@@H](N)CCCN=C(N)N)C(=O)N[C@@H](Cc1c[nH]c2ccccc12)C(=O)N[C@@H](Cc1c[nH]c2ccccc12)C(=O)N[C@H](C(=O)N[C@@H](CCCN=C(N)N)C(=O)N[C@H](C(=O)N[C@@H](CC(C)C)C(=O)N[C@@H](CCCN=C(N)N)C(N)=O)C(C)C)[C@@H](C)CC [RLLRIWWIRVLR] | 

Source: DBAASP
